# Tests used:
# [1] = tested on: Dermcidin (DCD); assay: TMT MS proteomics in HeLa cells, DCD abundance; type: cell-based, Homo sapiens; settings: 1 µM, 10 h, two replicates
# Procedure: (§1) MS proteomics. Sample preparation. HeLa cells were seeded at 5 × 10^6 on a 10 cm plate 16 h before treatment. […] Cells were incubated at 37 °C and 5% CO2 for 10 h before harvesting. Cells were placed on ice and medium was removed and cells were washed twice with cold PBS. Cells were lysed in 0.5 ml of 100 mM Tris pH 8.0, 4% (w/v) SDS supplemented with protease inhibitor cocktail (Roche). The lysate was pulse sonicated briefly and then centrifuged at 17,000 × g for 15 min at 4 °C. The supernatant fraction of cell extract was snap-frozen in liquid nitrogen and stored in −80 °C freezer. Further sample processing, digestion, desalting, labeling and fractionation were performed as previously described.
# (§2) nLC-MS/MS analysis. The TMT 10plex fractions were first analyzed as previously described. Briefly, the TMT 10plex fractions were analyzed sequentially on a Q Exactive HF Hybrid Quadrupole-Orbitrap Mass Spectrometer (Thermo Scientific) coupled to an UltiMate 3000 RSLCnano UHPLC system (Thermo Scientific) and EasySpray column (75 μm × 50 cm, PepMap RSLC C18 column, 2 μm, 100 Å, Thermo Scientific). The MS2 isolation window was set to 0.4 Da and the resolution set at 120,000. MS2 resolution was set at 60,000. The AGC targets for MS1 and MS2 were set at 3e^6 ions and 1e5 ions, respectively. The normalized collision energy was set at 32%. […] After the first analysis, the TMT labeled fractions were re-analyzed on the Q-Exactive HF using the same instrument settings and a target list generated from a theoretical trypsin digest of VHL. […] After the second analysis, two fractions were further analyzed using a targeted SIM/ddMS2 method on the Q-Exactive HF. […]
# (§3) Peptide and protein identification. All the raw MS data files from the three analyses were merged and searched against the Uniprot-sprot-Trembl-Human-Canonical database by Maxquant software 1.5.3.30 for protein identification and TMT reporter ion quantitation. […] Quantified proteins were filtered if the absolute fold-change difference between the two DMSO replicates was ≥ 1.5.
# [2] = tested on: Alsin (ALS2); assay: TMT MS proteomics in HeLa cells, ALS2 abundance; type: cell-based, Homo sapiens; settings: 1 µM, 10 h, two replicates
# Procedure: as §1, §2, §3
# [3] = target: T1, V19CB (Homo sapiens, UniProt P40337); assay: Size-exclusion chromatography (SEC) of complex formation with V19CB; type: binding; settings: compound 30 µM; for shift of VCB peak / ternary complex formation in SEC: VCB 50 µM
# T1 construct: made in house
# Procedure: Protein expression and purification. Human proteins VHL (UniProt accession number: P40337), ElonginC (Q15369), and ElonginB (Q15370) were used for all protein expression. The short-isoform-containing VCB complex (V19CB) was expressed, purified and stored as described previously. For expression of the long-isoform-containing VCB complex (V30CB), N-terminally His6-tagged VHL (1–213), ElonginC (17–112) and ElonginB (1–104) were co-expressed in Escherichia coli BL21(DE3) at 20 °C for 18 h using 0.5 mM isopropyl β-D-1-thiogalactopyranoside (IPTG). E. coli cells were resuspended in binding buffer (50 mM HEPES, pH 8.0, 500 mM NaCl, 10 mM imidazole and 5 mM β-mercaptoethanol), lysed using a pressure cell homogenizer (Stansted Fluid Power), and lysate clarified by centrifugation. The supernatant was loaded onto a HisTrap FF affinity column (GE Healthcare) equilibrated with binding buffer, and bound protein was eluted using an imidazole gradient. The His6 tag was removed using thrombin protease (Sigma), and the untagged complex was dialyzed into binding buffer. V30CB was then loaded onto the HisTrap FF column a second time, allowing impurities to bind as the complex eluted without binding. The flow-through was dialyzed using a low-salt buffer (20 mM HEPES, pH 8.0, 25 mM NaCl and 1 mM DTT) and then loaded onto a Resource Q anion exchange column (GE Healthcare); bound protein was eluted across a linear NaCl gradient. V30CB was then additionally purified by size-exclusion chromatography using a Superdex-75 16/600 column (GE Healthcare) equilibrated with 20 mM HEPES, pH 7.5, 100 mM sodium chloride and 1 mM TCEP. All chromatography purification steps were performed using Äkta FPLC purification systems (GE Healthcare).
# Size-exclusion chromatography (SEC). SEC experiments were carried out in a ÄKTA pure system (GE Healthcare) at room temperature. The oligomeric state of the VCB complex in solution was analyzed by gel filtration in a buffer containing 20 mM Bis-Tris (pH 7), 150 mM NaCl and 1 mM 1,4-dithiothreitol (DTT) using a Superdex 200 Increase 10/300 GL column (GE Healthcare) calibrated with globular proteins of known molecular weight (GE Healthcare, 28-4038-41/42). […] Sample volume for each injection was 200 µl, and the flow rate was 0.5 ml min^−1. Peak elution was monitored using ultraviolet absorbance at 280 nm.
# T1 sequence (P40337 54-213): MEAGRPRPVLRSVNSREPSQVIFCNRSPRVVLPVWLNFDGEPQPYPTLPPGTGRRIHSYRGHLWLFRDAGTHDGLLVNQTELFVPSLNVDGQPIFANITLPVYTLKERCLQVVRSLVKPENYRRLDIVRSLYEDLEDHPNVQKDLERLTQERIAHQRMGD
# T1 sequence (Q15369 17-112 partner limits assumed): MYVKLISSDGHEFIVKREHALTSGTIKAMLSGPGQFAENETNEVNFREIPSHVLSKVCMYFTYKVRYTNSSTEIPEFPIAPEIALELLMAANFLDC
# T1 sequence (Q15370 1-104 partner limits assumed): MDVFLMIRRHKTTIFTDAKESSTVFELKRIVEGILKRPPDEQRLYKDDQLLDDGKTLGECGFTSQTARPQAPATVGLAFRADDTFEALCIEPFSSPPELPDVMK
Compound,"average normalized ratio to DMSO, DCD [1]","average normalized ratio to DMSO, ALS2 [2]",shift of VCB peak / ternary complex formation in SEC [3],molecular weight of species in shifted SEC peak ([3]; V19CB 50 µM)
"Cc1ncsc1-c1ccc(CNC(=O)[C@@H]2C[C@@H](O)CN2C(=O)[C@@H](NC(=O)COCCOCCOCCOCC(=O)N[C@H](C(=O)N2C[C@H](O)C[C@H]2C(=O)NCc2ccc(-c3scnc3C)cc2)C(C)(C)C)C(C)(C)C)cc1 [CM09, N ^1 ,N ^14-bis((S)-1-((2S,4R)-4-hydroxy-2-((4-(4-methylthiazol-5-yl)benzyl)carbamoyl)pyrrolidin-1-yl)-3,3-dimethyl-1-oxobutan-2-yl)-3,6,9,12-tetraoxatetradecanediamide]",1.41,0.98,formation of a ternary complex eluting at identical retention volume when compared to CM11,
"Cc1ncsc1-c1ccc(CNC(=O)[C@@H]2C[C@@H](O)CN2C(=O)[C@@H](NC(=O)COCCOCCOCCOCCOCC(=O)N[C@H](C(=O)N2C[C@H](O)C[C@H]2C(=O)NCc2ccc(-c3scnc3C)cc2)C(C)(C)C)C(C)(C)C)cc1 [CM10, N ^1 ,N ^17-bis((S)-1-((2S,4R)-4-hydroxy-2-((4-(4-methylthiazol-5-yl)benzyl)carbamoyl)pyrrolidin-1-yl)-3,3-dimethyl-1-oxobutan-2-yl)-3,6,9,12,15-pentaoxaheptadecanediamide]",1.33,1.00,formation of a ternary complex eluting at identical retention volume when compared to CM11,
"Cc1ncsc1-c1ccc(CNC(=O)[C@@H]2C[C@@H](O)CN2C(=O)[C@@H](NC(=O)COCCOCCOCCOCCOCCOCC(=O)N[C@H](C(=O)N2C[C@H](O)C[C@H]2C(=O)NCc2ccc(-c3scnc3C)cc2)C(C)(C)C)C(C)(C)C)cc1 [CM11, N ^1 ,N ^20-bis((S)-1-((2S,4R)-4-hydroxy-2-((4-(4-methylthiazol-5-yl)benzyl)carbamoyl)pyrrolidin-1-yl)-3,3-dimethyl-1-oxobutan-2-yl)-3,6,9,12,15,18-hexaoxaicosanediamide]",0.87,0.98,,~ 90 kDa

# From paper PMC5635026, “Homo-PROTACs: bivalent small-molecule dimerizers of the VHL E3 ubiquitin ligase to induce self-degradation” (Nature Communications, 2017)
